Values of other authors, collected in patent US20040014955A1, “Identification of essential genes of cryptococcus neoformans and methods of use” (priority 2001, published 2004).
*1 amine or outer side, *2 acyl side, *3 side chain or, on linkers, in order; H or OH if unused. Where a SMILES comes first, the peptide text is derived from it. [ ]: non-standard residue; d: D form. X1 = CC[C@@H](C)[C@@H](O[*:1])C(=O)[*:2]; NMeVal(β-OH) = CN[C@H](C(=O)O)C(C)(C)O; NMeF = CN[C@@H](Cc1ccccc1)C(=O)O; NMeV = CN[C@H](C(=O)O)C(C)C

Tested on: C. neoformans
Details: weanling outbred rats infected with C. neoformans by direct percranial puncture and inoculation into the cranium

Compound: CC[C@@H](C)[C@H]1OC(=O)[C@H](C(C)(C)O)N(C)C(=O)[C@H](CC(C)C)NC(=O)[C@H](C(C)C)N(C)C(=O)[C@H]([C@@H](C)CC)NC(=O)[C@@H]2CCCN2C(=O)[C@H](Cc2ccccc2)N(C)C(=O)[C@H](Cc2ccccc2)NC(=O)[C@H](C(C)C)N(C)C1=O [LY295337] (cyclo(F[NMeF]PI[NMeV]L[NMeVal(β-OH)][X1][NMeV]))
- fungal counts in brain tissue: reducing fungal counts in brain tissue
- survival: effective in prolonging survival
